No end group written: not given here.
Test system: cysteine-containing SecR(G264A,I268A) constructs
Experiment: Cysteine trapping with SecR(G264A,I268A) cysteine constructs, intact COS-1 cells
Type: binding, human
Settings: mean ± S.E.M.
Description: In short, 15 µg of each peptide were incubated with 1 mCi of Na^125I for 15 s in borate buffer (pH 9.0) using solid-state N-chlorobenzene sulfonamide (iodination beads), and radioactive peptide products were separated and purified using reversed-phase HPLC, to yield a mono-iodinated peak with a specific radioactivity of 2000 Ci/mmol.
Modified secretin receptor constructs were prepared by mutagenesis of human SecR(G264A,I268A) by introducing cysteine residues to replace each natural residue in the N-terminal stalk region, (extracellular loop 1) ECL1, ECL2, and ECL3 regions of the receptor[21]. Mutagenesis was performed using the QuikChange site-directed mutagenesis kit from Stratagene (La Jolla, CA), with the products verified by direct DNA sequencing.
Cysteine trapping is a technique in which cysteine residues incorporated into distinct positions within a peptide ligand and within its receptor are allowed to form disulfide bonds when two free cysteines are in proximity to each other with necessary distance and geometry. As noted above, this was performed with secretin peptides incorporating cysteines in positions 2, 5, 6 and 7[20],[21], and with a series of SecR mutants incorporating cysteines in all extracellular domains (75 distinct constructs in a TM4 mutant non-dimerizing SecR background). COS-1 cells were grown to approximate 85% confluence in 24-well tissue culture plates, and transfected with cysteine mutant receptor constructs using the PEI method. Assays were started by washing the cells with DMEM containing 5% Fetal Clone II before being incubated with 200 μl radiolabeled cysteine-containing probes (approximately 100,000 cpm per well) for 1.5 h at room temperature. The assays were terminated by washing the cells with ice-cold PBS, pH 7.4, and mixing with 60 µl SDS Laemmli sample buffer not containing dithiothreitol (DTT). Lysates were run on 10% SDS-polyacrylamide gels. Gels were then dried, and bands of interest were visualized by autoradiography, and specific bands were identified, and intensities quantified using ImageJ. Sites having labeling above background were determined using one-way ANOVA with Dunnett’s post-test, with P < 0.001 considered to be significant. The apparent molecular weights of the receptor bands were determined by interpolation with the mobility of the appropriate ProSieve protein markers.

Substance: Cys^2-[Tyr^10]secretin(1-27) (HCDGTFTSEYSRLREGARLQRLLQGLV; not fully specified; ends and bridges not checked; also: radioiodinated; UniProt P09683 28-54, looked up, variant S2C L10Y) [Cys^2-Sec, cysteine-containing secretin agonist probe, radioiodinated for cysteine trapping]
- Intraloop labeling (A290C, ECL2, n = 3-5): < 1 percentage
- Overall labeling (A290C, ECL2, n = 3-5): < 1 percentage
- Intraloop labeling (A292C, ECL2, n = 3-5): < 1 percentage
- Overall labeling (A292C, ECL2, n = 3-5, Cys5 significant (P < 0.0001)): < 1 percentage
- Intraloop labeling (A365C, ECL3, n = 3-5): 22.5±19.5 percentage
- Overall labeling (A365C, ECL3, n = 3-5, Cys5 significant (P < 0.0001)): 21.7±19.6 percentage
- Intraloop labeling (D282C, ECL2, n = 3-5): < 1 percentage
- Overall labeling (D282C, ECL2, n = 3-5): < 1 percentage
- Intraloop labeling (D287C, ECL2, n = 3-5): < 1 percentage
- Overall labeling (D287C, ECL2, n = 3-5): < 1 percentage
- Intraloop labeling (D364C, ECL3, n = 3-5): 22.1±19.0 percentage
- Overall labeling (D364C, ECL3, n = 3-5, Cys5 significant (P < 0.0001)): 21.3±19.1 percentage
- Intraloop labeling (E281C, ECL2, n = 3-5): < 1 percentage
- Overall labeling (E281C, ECL2, n = 3-5): < 1 percentage
- Overall labeling (E363C, ECL3, n = 3-5): < 1 percentage
- Intraloop labeling (E367C, ECL3, n = 3-5): < 1 percentage
- Overall labeling (E367C, ECL3, n = 3-5): < 1 percentage
- Intraloop labeling (E373C, ECL3, n = 3-5): 37.0±22.4 percentage
- Overall labeling (E373C, ECL3, n = 3-5): 27.2±18.7 percentage
- Intraloop labeling (F279C, ECL2, % of highest labeling within loop, n = 4 (Cys2), 5 (Cys5, Cys6), 3 (Cys7)): < 1 percentage
- Overall labeling (F279C, ECL2, % of highest-labeled residue across all constructs, n = 4 (Cys2), 5 (Cys5, Cys6), 3 (Cys7)): < 1 percentage
- Intraloop labeling (F358C, ECL3, n = 3-5): 36.3±17.6 percentage
- Overall labeling (F358C, ECL3, n = 3-5): 29.0±11.6 percentage
- Intraloop labeling (F360C, ECL3, n = 3-5): 22.9±8.3 percentage
- Overall labeling (F360C, ECL3, n = 3-5): 19.4±6.5 percentage
- Intraloop labeling (F371C, ECL3, n = 3-5): 14.7±12.5 percentage
- Overall labeling (F371C, ECL3, n = 3-5): 14.5±12.5 percentage
- Intraloop labeling (F372C, ECL3, n = 3-5): 33.7±20.5 percentage
- Overall labeling (F372C, ECL3, n = 3-5): 23.5±15.3 percentage
- Intraloop labeling (G284C, ECL2, n = 3-5): < 1 percentage
- Overall labeling (G284C, ECL2, n = 3-5): < 1 percentage
- Intraloop labeling (I288C, ECL2, n = 3-5): < 1 percentage
- Overall labeling (I288C, ECL2, n = 3-5, Cys5 and Cys7 significant (P < 0.0001)): < 1 percentage
- Intraloop labeling (I294C, ECL2, n = 3-5): < 1 percentage
- Overall labeling (I294C, ECL2, n = 3-5): < 1 percentage
- Intraloop labeling (I368C, ECL3, n = 3-5): < 1 percentage
- Overall labeling (I368C, ECL3, n = 3-5): < 1 percentage
- Intraloop labeling (L280C, ECL2, n = 3-5): < 1 percentage
- Overall labeling (L280C, ECL2, n = 3-5): < 1 percentage
- Intraloop labeling (L370C, ECL3, n = 3-5): 16.6±15.3 percentage
- Intraloop labeling (L374C, ECL3, n = 3-5): 40.3±24.4 percentage
- Overall labeling (L374C, ECL3, n = 3-5, Cys5, Cys6, Cys7 significant (P < 0.001)): 29.1±19.6 percentage
- Intraloop labeling (N289C, ECL2, n = 3-5): < 1 percentage
- Overall labeling (N289C, ECL2, n = 3-5): < 1 percentage
- Intraloop labeling (N291C, ECL2, n = 3-5): < 1 percentage
- Overall labeling (N291C, ECL2, n = 3-5): < 1 percentage
- Intraloop labeling (Q369C, ECL3, n = 3-5): < 1 percentage
- Overall labeling (Q369C, ECL3, n = 3-5): < 1 percentage
- Intraloop labeling (S293C, ECL2, n = 3-5): < 1 percentage
- Overall labeling (S293C, ECL2, n = 3-5): < 1 percentage
- Intraloop labeling (S361C, ECL3, n = 3-5): < 1 percentage
- Overall labeling (S361C, ECL3, n = 3-5): < 1 percentage
- Intraloop labeling (V283C, ECL2, n = 3-5): < 1 percentage
- Overall labeling (V283C, ECL2, n = 3-5): < 1 percentage
- Intraloop labeling (W286C, ECL2, n = 3-5): < 1 percentage
- Overall labeling (W286C, ECL2, n = 3-5): < 1 percentage
- Intraloop labeling (W295C, ECL2, n = 3-5): 100±0 percentage
- Overall labeling (W295C, ECL2, n = 3-5, Cys2, Cys5, Cys7 significant (P < 0.0001)): 93.0±7.0 percentage
- Intraloop labeling (W296C, ECL2, n = 3-5): < 1 percentage
- Overall labeling (W296C, ECL2, n = 3-5, Cys6 significant (P = 0.0003)): < 1 percentage

From publication PMC11116414, “Impact of secretin receptor homo-dimerization on natural ligand binding” (Nature Communications, 2024)
